The test system of test [1] is acute panmyelosis with myelofibrosis. Briefly: Patient's earlier treatment of relapsed haematological disease. The class given is in vivo, human. To be noted: venetoclax plus azacytidine, after the first two cycles, one patient.
The test system of test [2] is Fusarium petroliphilum. In words: Antifungal resistance tests (MIC) on the patient's mold. The settings on record: Fusarium petroliphilum from the patient's skin biopsy; no clinical breakpoints established; read-out: minimum inhibitory concentrations (MIC). Type of test: cell-based. The method, then:
The patient was admitted to the hospital for fever, muscle pain, and polytopic erythematous plaques/nodules on the trunk and extremities, some of them with central pustules. […] Blood cultures were negative. Galactomannan and β-D-glucan were negative. […] Bronchoscopy was performed but all results were negative.

Test [3] concerns Fusarium petroliphilum. Briefly: Treatment of a patient with fusariosis (compassionate, first-in-human use). To be noted: one patient; liposomal amphotericin-B, terbinafine and voriconazole given together, before cell therapy. Type of test: in vivo.
Protocol: Since admission, liposomal amphotericin-B was initiated and after fusariosis diagnosis, terbinafine and voriconazole were added.

Where only a bound is given, the exact number is not on record here.

As for `Nc1ncn([C@@H]2O[C@H](CO)[C@@H](O)[C@H]2O)c(=O)n1` [azacytidine], the “response of haematological disease” value in test [1] is given as “partial response”. `C[C@@H](c1nc(-c2ccc(C#N)cc2)cs1)[C@](O)(Cn1cncn1)c1cc(F)ccc1F` [isavuconazole]: the MIC in the test on Fusarium petroliphilum [2] is over 8 µg/mL.

As to `CC[C@@H]([C@H](C)O)n1ncn(-c2ccc(N3CCN(c4ccc(OC[C@@H]5CO[C@@](Cn6cncn6)(c6ccc(F)cc6F)C5)cc4)CC3)cc2)c1=O` [posaconazole], the MIC in the test with Fusarium petroliphilum [2] was over 8 µg/mL. As for `CN(C/C=C/C#CC(C)(C)C)Cc1cccc2ccccc12` [terbinafine], in the test on Fusarium petroliphilum [3], the “clinical course under antifungal drugs” value is “remained febrile, with appearance of new skin lesions and mild worsening of the chest CT images”. Take `C[C@@H](c1ncncc1F)[C@](O)(Cn1cncn1)c1ccc(F)cc1F` [voriconazole]: in the test with Fusarium petroliphilum [3], the “clinical course under antifungal drugs” value is “remained febrile, with appearance of new skin lesions and mild worsening of the chest CT images”. Further, the MIC in the test on Fusarium petroliphilum [2] is over 8 µg/mL.

For the origin of these results see patent US20240325531A1, “CAR T/NK-CELLS FOR USE IN THE TREATMENT OF INVASIVE FUNGAL INFECTIONS” (UNIVERSITAT DE BARCELONA, priority 2021, published 2024).
